Each block holds one molecule with its values, some of them ahead of it.
What was measured:
Furin = biological target: T1, Furin (Homo sapiens, UniProt P09958); test: Cleavability of PCSK9 mutants by Furin in HEK293 cells (pulse-labelling, V5 immunoprecipitation); type: cell-based; settings: for processing at Arg218 by endogenous Furin: 5 h pulse-labelling, FIG. 9; for processing by co-expressed Furin: co-transfection with Furin, FIG. 8
T1 construct: endogenous in cells; host or cells: HEK293
Experimental: Twenty four hours following the co-transfection of the PCSK9 natural mutants and each PC or with an empty vector control (pIRES). The cells were labeled with [^35S] [Met+Cys] for 5 h (P5h) and the cell lysates (Cells) and media analyzed as in FIG. 7. The stars point to lanes where either processing occurred (Furin and PC5A) or was inhibited by the presence of the mutation (R^218S with furin). Cleavage sites GTRFHS^218↓QA (SEQ ID NO: 17); GTRLHR^218↓QA (SEQ ID NO: 18);
[Met+Cys] as described in FIG. 7. The star emphasizes the effectiveness of the RRRR218EL (SEQ ID NO: […]) mutant to allow the complete processing of PCSK9 into the PCSK9-ΔN218 form by endogenous Furin. PCSK9 amino acid sequence in the vicinity of position 218 RFHR218QA (SEQ ID NO: 4) (WT); RFHR218EA (SEQ ID NO: 6) (Q219E); RFHR218EL (SEQ ID NO: 7) (QA219,220EL); RRRR218EL (SEQ ID NO: 5);
Was next tested the hypothesis that cleavage at Arg218 is performed by one or more basic amino acid PCs. Accordingly, wild type PCSK9 was co-expressed with all the convertases as well as with β-secretase BACE1 in HEK293 cells. Cells transiently transfected with vectors expressing hPCSK9-V5 and/or the different convertases (as indicated at the top of lanes) were pulse-labeled with ^35S-(Met+Cys) for 4 h and cell extracts (Cells) and media (Media) were immunoprecipitated with a V5 antibody and the precipitates were resolved by SDS/PAGE. […] The N-terminally truncated N2 product is thus referred to as PCSK9-ΔN218 (SEQ ID NO: 32) (PCSK9 lacking the first 218 amino acids; FIG. 5). […] The R218S mutation abrogates the Furin/PC5A cleavage at the sequence RFHR218.
Based on the crystal structure of Furin (Henrich et al., 2003) and the analysis of its many substrates (Seidah and Chretien, 1999), the best substrates of Furin would have the motif RX(R/K)R↓(E/D)L (SEQ ID NO: 115). This led the applicants to produce mutants of PCSK9 that should greatly enhance the ability of Furin to process this molecule. […] Notice the almost absence of prosegment co-immunoprecipitating with the PCSK9-ΔN218 form produced (FIG. 9), which would be predicted since such cleavage would remove the PCSK9 segment 153-218 (SEQ ID NO: 31), which contains the active site Asp^186.

basic aa-specific PCs = test: Inhibition of PC processing of overexpressed human PCSK9 in HEK293 cells (pulse-labelling, V5 immunoprecipitation); type: cell-based; settings: co-expression with PCSK9 in HEK293 cells; FIG. 7
Experimental: Twenty four hours following the co-transfection of PCSK9 with a PC or with an empty vector control (the pIRES-2 vector from Invitrogen), the cells were labeled with [^35S] [Met+Cys] for 4 h (P4h). The cell lysates (Cells) and media were immunoprecipitated with a V5-mAb and the immunoprecipitates resolved by SDS-PAGE, as described (Seidah et al., 2003). sFurin represents the soluble form of furin lacking the transmembrane-cytosolic tail (Decroly et al., 1996). The stars point to lanes where either processing occurred (with Furin and PC5A) or was inhibited (α1-PDX). From now on, N2 is defined herein as the N-terminal 218 amino acid truncated PCSK9 product (PCSK9-ΔN218). The pIRES lanes represent the empty vector pIRES-2 either alone or co-transfected with PCSK9 (as indicated at the bottom of the panel) as controls;
Was next tested the hypothesis that cleavage at Arg218 is performed by one or more basic amino acid PCs. Accordingly, wild type PCSK9 was co-expressed with all the convertases as well as with β-secretase BACE1 in HEK293 cells. Cells transiently transfected with vectors expressing hPCSK9-V5 and/or the different convertases (as indicated at the top of lanes) were pulse-labeled with ^35S-(Met+Cys) for 4 h and cell extracts (Cells) and media (Media) were immunoprecipitated with a V5 antibody and the precipitates were resolved by SDS/PAGE. […]

LDLR [1] = test: Western blot of LDLR level in HEK293 cells co-transfected with LDLR and PCSK9 or PCSK9-TM-CT chimera; type: cell-based, human; settings: HEK293 cells co-transfected with LDLR; compared to wild type PCSK9; FIG. 4
Experimental: (§1) Note that NH4Cl allows the rescue from degradation of an intermediate immunoreactive ˜105 kDa form of LDLR that is likely found in endosomes. The pIRES lanes represent the empty vector pIRES-2 either alone or co-transfected with LDLR (as indicated at the bottom of the panel) as controls;
as §1, with “HEK293 cells were transiently transfected with different PCSK9-chimera constructions (Benjannet et al., 2004). […] Cells were either treated (+) or not (−) with 5 mM NH4Cl for 24 h. Note” for “Note”, “controls.” for “controls;”

ApoER2 = test: Western blot of overexpressed ApoER2 in cells co-transfected with PCSK9 constructs; type: cell-based; settings: for degradation of ApoER2: overexpressed receptor, transient co-transfection, FIGS. 13 and 14
From the text: (§2) The triangle indicates the position in the gel of respectively ApoER2 (first panel), VLDLR (second panel) and LDLR (third panel). […] The PCSK9 Y38F is a mutant where the Tyr-sulfation of the prosegment is eliminated. The intracellular levels of PCSK9 (detected by a specific in-house polyclonal antibody made in rabbits against human PCSK9) are shown in the corresponding cell lysates in the lower panels;
The intracellular levels of PCSK9 (detected by a specific in house antibody against human PCSK9) are shown in the bottom panels;

VLDLR [2] = test: Western blot of overexpressed VLDLR in CHOK1 cells co-transfected with PCSK9 constructs; type: cell-based; settings: overexpressed receptor, transient co-transfection; FIG. 13
From the text: as §2

LDLR [3] = test: Western blot of overexpressed LDLR in CHOK1 cells co-transfected with PCSK9 constructs; type: cell-based; settings: overexpressed receptor, transient co-transfection; FIG. 13
From the text: as §2

LDLR [4] = test: Western blot of endogenous LDLR level in HuH7 cells transiently transfected with PCSK9 constructs; type: cell-based, human; settings: compared to pIRES empty vector, FIG. 10
From the text: Cells expressed either full length PCSK9 (FL-PCSK9), namely wild type sequence (WT), mutated R218S, RRRREL (SEQ ID NO: 5) or active site H226A; a truncated PCSK9 construct with the Cys/His rich domain (signal peptide fused to amino acid 455-692 of PCSK9 and ending with a V5 tag) (CHRD) or the empty vector control (pIRES-2). The levels of β-actin was used as control, as well as the level of PCSK9 intracellular proteins produced (detected by a V5-mAb);
Accordingly, the activity on the degradation of LDLR of wild type PCSK9, its R218S mutant, the RRRR218EL (SEQ ID NO: 5) variant, the active site mutant H226A and the Cys/His-rich domain of PCSK9 (aa 454-692 CHRD) was analyzed by Western blots in HuH7 cells (Benjannet et al., 2004) (FIG. 10).

VLDLR [5] = test: Transgenic mice overexpressing PCSK9-V5 in hepatocytes: VLDLR in skeletal muscle, circulating LDL-cholesterol; type: in vivo, mouse
Experimental: The transgenic protein was tagged with a V5 at its C-terminus to differentiate it from the endogenous one. […] This is the first evidence that circulating PCSK9 can enhance the degradation of VLDLR in vivo and at distant sites away from those of its synthesis.
Immunohistochemistry of VLDLR (red) in skeletal mouse muscles of control Pcsk9+/+, Pcsk9−/− (Pcsk9 knockout) and transgenic mice (Tg-hPcsk9-V5). The nuclei were stained using TO-PRO-3 (blue; invitrogen). scale: […]; and
A transgenic mice specifically overexpressing PCSK9 in hepatocytes was generated. The transgene was under the control of the ApoE promoter and enhancer regulation. […] The transgenic protein was tagged with a V5 at its c-terminus to differentiate it from the endogenous one. […] Immunofluorescence and Confocal Microscopy analyses of the skeletal mouse muscles were performed using a rabbit polyclonal Ab:VLDLR (a74; 1:200). Immunofluorescence analyses were performed with a Zeiss™ LSM-510 confocal microscope. Confocal immunofluorescence microscopy was performed with a Nikon Eclipse™ TE2000-U laser-scanning microscope with 408, 488, and 543-nm laser lines. Images were processed with Adobe Photoshop™ CS2, version 9.0 (Adobe Systems). […] This is the first evidence that circulating PCSK9 can enhance the degradation of VLDLR in vivo. The decrease level of VLDLR in the transgenic mice overexpressing PCSK9 in the liver was also confirm by immunodetection of PCSK9 in extracts of skeletal muscle (see FIG. 21).

T1 sequence (P09958 108-794): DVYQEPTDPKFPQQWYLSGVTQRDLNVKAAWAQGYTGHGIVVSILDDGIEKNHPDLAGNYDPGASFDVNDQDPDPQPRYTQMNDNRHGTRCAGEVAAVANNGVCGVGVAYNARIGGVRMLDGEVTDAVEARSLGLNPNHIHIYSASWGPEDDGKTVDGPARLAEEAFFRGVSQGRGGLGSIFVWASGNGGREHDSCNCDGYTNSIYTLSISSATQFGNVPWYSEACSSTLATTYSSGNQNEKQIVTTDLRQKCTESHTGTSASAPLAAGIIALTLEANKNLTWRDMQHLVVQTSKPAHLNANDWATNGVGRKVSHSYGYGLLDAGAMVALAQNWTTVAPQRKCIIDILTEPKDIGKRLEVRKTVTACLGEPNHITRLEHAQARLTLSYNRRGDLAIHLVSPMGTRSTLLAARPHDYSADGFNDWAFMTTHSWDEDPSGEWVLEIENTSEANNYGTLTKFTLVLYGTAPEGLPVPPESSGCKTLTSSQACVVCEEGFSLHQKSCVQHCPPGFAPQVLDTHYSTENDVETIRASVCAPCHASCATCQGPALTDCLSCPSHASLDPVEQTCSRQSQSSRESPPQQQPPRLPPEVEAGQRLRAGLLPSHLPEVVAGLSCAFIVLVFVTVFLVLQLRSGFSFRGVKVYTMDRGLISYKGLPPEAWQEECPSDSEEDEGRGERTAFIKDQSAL

processing at Arg218 by endogenous Furin (Furin): intermediate Furin-cleavability
Molecule: RFHR218↓EA: PCSK9 mutant with motif RFHR218EA (SEQ ID NO: 6)

Molecule: α1-PDX: modified serpin which inhibits most of the basic aa-specific PCs
inhibition of processing of PCSK9 into PCSK9-ΔN218 (basic aa-specific PCs): completely inhibits such processing into PCSK9-ΔN218

Molecule: PCSK9-[TM-CT of ACE2]: chimera of full-length human PCSK9 (1-692) fused to the transmembrane and cytosolic domains of ACE2, SEQ ID NO: 27
degradation of LDLR (LDLR [1]): much more effective than the wild type (WT) PCSK9

Molecule: PCSK9-[TM-CT of Lamp1]: chimera of full-length human PCSK9 (1-692) fused to the transmembrane and cytosolic domains of Lamp1, SEQ ID NO: 24
degradation of LDLR (LDLR [1]): more powerful chimera to enhance the degradation of the LDLR | level of ApoER2 (ApoER2; CHOK1, Neuro2A, HuH7 and HEKL293 cells, FIG. 14): significantly decreased the level of ApoER2 in all cells tested | degradation of ApoER2 (ApoER2): highest efficacy of degradation | degradation of VLDLR (VLDLR [2]): highest efficacy of degradation | degradation of LDLR (LDLR [3]): highest efficacy of degradation

Molecule: PCSK9-[TM-CT of LDLR]: chimera of full-length human PCSK9 (1-692) indirectly fused to the transmembrane and cytosolic domains of LDLR, SEQ ID NO: 20
degradation of LDLR (LDLR [1]): much more effective than the wild type (WT) PCSK9

processing by co-expressed Furin (Furin): cleaves to a lesser extent
Molecule: F216L: natural PCSK9 mutant Phe216-to-Leu, hypercholesterolemia-associated

processing by co-expressed Furin (Furin): can no longer process
Molecule: R218S: natural PCSK9 mutant Arg218-to-Ser, hypercholesterolemia-associated, Furin/PC5A-resistant
activity in enhancing the degradation of the LDLR (LDLR [4]): active in enhancing the degradation of the LDLR

processing at Arg218 by endogenous Furin (Furin): completely process
Molecule: RRRR^218EL: PCSK9 variant with wild type RFHR218QA replaced by optimal Furin-recognition sequence RRRR218EL (SEQ ID NO: 5)
activity in enhancing the degradation of the LDLR (LDLR [4]): inactive

Molecule: H226A: active site mutant of PCSK9, an inactive enzyme form that remains as zymogen in the ER [reference compound]
activity in enhancing the degradation of the LDLR (LDLR [4]): inactive

Molecule: wild type PCSK9: human full-length PCSK9 (1-692), SEQ ID NO: 21
activity in enhancing the degradation of the LDLR (LDLR [4]): active in enhancing the degradation of the LDLR | degradation of ApoER2 (ApoER2): degraded | degradation of VLDLR (VLDLR [2]): degraded

processing at Arg218 by endogenous Furin (Furin): intermediate Furin-cleavability
Molecule: RFHR218↓EL: PCSK9 mutant with motif RFHR218EL (SEQ ID NO: 7)

Molecule: PCSK9-ΔN218: C-terminal fragment of the furin/PC5-cleaved PCSK9 (219-692), SEQ ID NO: 32
activity in enhancing the degradation of the LDLR (LDLR [4]): inactive form of PCSK9

Molecule: PCSK9-V5: transgenic PCSK9 tagged with V5 at its C-terminus, overexpressed in mouse hepatocytes
circulating LDL-Cholesterol (VLDLR [5]; transgenic mice overexpressing PCSK9 in hepatocytes): quite elevated | level of VLDLR in skeletal muscle (VLDLR [5]; transgenic mice versus control littermates, immunofluorescence, FIG. 21): dramatically decreased | decrease of VLDLR level in muscle (VLDLR [5]; transgenic mice versus non-transgenic control littermates): at least 3 fold

B1: CHRD: truncated PCSK9 construct: signal peptide fused to the Cys/His rich domain (amino acid 455-692) with V5 tag (protein)
chain: LFCRTVWSAHSGPTRMATAVARCAPDEELLSCSSFSRSGKRRGERMEAQGGKLVCRAHNAFGGEGVYAIARCCLLPQANCSVHTAPPAEASMGTRVHCHQQGHVLTGCSSHWEVEDLGTHKPPVLRPRGQPNQCVGHREASIHASCCHAPGLECKVKEHGIPAPQEQVTVACEEGWTLTGCSALPGTSHVLGAYAVDNTCVVRSRDVSTTGSTSEGAVTAVAICCRSRHLAQASQELQ
modifications: left off: small tags and cut ends
notes: truncated PCSK9 construct: signal peptide fused to the Cys/His rich domain (amino acid 455-692) with V5 tag
activity in enhancing the degradation of the LDLR (LDLR [4]): inactive

Reference: patent publication US8338568B2, “Chimeric PCSK9 proteins, cells comprising same, and assays using same” (Adaerata, Limited Partnership, priority 2006, dated 2012)
